Key:
Recombinant Tropoelastin = molecular target: T1, Recombinant Tropoelastin (Homo sapiens, UniProt P15502); assay: CML levels in recombinant tropoelastin treated with MB PDT; type: biochemical; conditions: MB PDT vs untreated tropoelastin and methylene blue without light
T1 sequence (P15502 27-786): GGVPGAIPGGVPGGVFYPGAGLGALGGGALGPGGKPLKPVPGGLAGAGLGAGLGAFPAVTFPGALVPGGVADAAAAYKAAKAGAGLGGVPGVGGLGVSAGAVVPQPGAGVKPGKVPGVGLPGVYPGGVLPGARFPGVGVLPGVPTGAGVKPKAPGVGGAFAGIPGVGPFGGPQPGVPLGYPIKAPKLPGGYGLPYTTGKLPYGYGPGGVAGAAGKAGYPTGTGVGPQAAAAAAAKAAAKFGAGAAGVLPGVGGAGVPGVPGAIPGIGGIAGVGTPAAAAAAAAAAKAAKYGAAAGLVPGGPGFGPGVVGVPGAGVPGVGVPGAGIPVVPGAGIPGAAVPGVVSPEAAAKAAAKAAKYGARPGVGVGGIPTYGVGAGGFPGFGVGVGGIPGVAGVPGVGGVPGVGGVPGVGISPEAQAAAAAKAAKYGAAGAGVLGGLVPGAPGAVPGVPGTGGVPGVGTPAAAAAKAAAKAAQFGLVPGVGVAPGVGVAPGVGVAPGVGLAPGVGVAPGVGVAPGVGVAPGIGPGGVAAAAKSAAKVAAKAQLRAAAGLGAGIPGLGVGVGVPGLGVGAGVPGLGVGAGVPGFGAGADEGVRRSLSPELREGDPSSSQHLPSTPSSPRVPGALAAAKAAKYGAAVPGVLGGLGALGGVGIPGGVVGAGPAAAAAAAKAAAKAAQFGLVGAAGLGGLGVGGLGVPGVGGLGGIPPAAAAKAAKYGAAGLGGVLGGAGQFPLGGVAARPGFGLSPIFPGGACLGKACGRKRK

[1] = Tissue rigidity assay, porcine aorta ex vivo
[2] = Tissue rigidity assay (forceps test), healthy mouse aortic tissue ex vivo; design: species or system mice; conditions: MB PDT ex vivo
Procedure: (§1) (FIG. 7A). The stiffness maximized at 120 mins exposure for mouse tissue. […] To assess if this benefit of MB PDT on mechanical strength is true in a pathological setting, MB PDT treatment was done of on mouse aneurysms in vivo and the stiffness was assessed ex vivo (FIG. 7C).
(§2) Mouse aneurysms and aortic tissue were treated with MB PDT and vehicle in vivo and ex vivo.

mouse aneurysms = assay: Tissue rigidity assay, mouse aneurysms treated in vivo, stiffness assessed ex vivo; conditions: post-MB PDT in vivo vs vehicle treatment controls
Procedure: as §1, §2

[3] = system: total elastin in porcine tissue; assay: CML modification levels of total elastin in porcine tissue; conditions: MB PDT vs untreated samples and pentagalloyl glucose; less than glutaraldehyde
[4] = Ex vivo elastase degradation assay with VVG staining; design: species or system pigs; conditions: MB PDT 20 min irradiance of 150 mW/cm^2, before recombinant elastase; vs Veh only
Procedure: Human and porcine aorta were thawed from −80 C to RT. Tissue was then cut into ~1 cm×1 cm squares and briefly rinsed with HBSS. Tissues were then split into two groups: control and PDT. Control tissues were kept in HBSS at RT for one hour, and treated tissues were subjected to 150 mW NIR light for 20 mins in 100 μg/ml methylene blue, with the lumen side facing the light. Then each group was further split into two groups, no elastase and elastase treatment. Treatment involved a 2 hour incubation at 37 C in 10% Porcine Pancreatic Elastase (E1250-25 MG). After treatment all tissues were briefly rinsed, dried on a paper towel, and frozen in OCT. Tissue was sectioned at 10 μm by cryotome for the cross-section and stained using Van Gieson (Statlab KTVELLT). Images were taken at 20× and 100× on a Keyence BZ-X700 Fluorescence Microscope.
To assess if MB PDT can protect aortic tissue from elastase-induce extracellular matrix degradation, aortic tissue were procured from pigs and subjected to MB PDT (20 min irradiance of 150 mW/cm^2) or Veh only treatment ex vivo before recombinant elastase treatment. Comparative analysis of the cross-sections of these tissues were sought to ascertain the consistency of PDT's protective effects across different biological species. […]

[5] = system: aortic aneurysm cross-sections; assay: Histology and IHC staining of aneurysm cross-sections after MB PDT at AAA induction; type: in vivo, mice
Excerpt: The formation and progression of AAA can be characterized by the degradation of the extracellular matrix (ECM) and the concurrent infiltration of immune cells into the aortic wall. To assess if MB PDT affects the extracellular matrix (ECM) of the aortic aneurysms, cross-sections of the aneurysms of the above mice which have undergone AAA induction and concurrently treated with MB PDT and the respective controls were stained with Verhoeff-Van Gieson (VVG) for elastin, Massons Trichrome for collagen and CD3 antibody for T-cells and CD68 antibody for macrophages for immune cell infiltration (FIG. 2A). […] Similarly, a compensatory effect of collagen expression into the elastin layer was observed (pointed by arrows) after PDT treatment compared to both vehicle-treated positive controls and sham controls. […] To assess if T-cells and macrophage infiltration is modulated in aneurysms upon treatment with MB PDT, the aneurysm cross-sections were stained for CD3 and CD68, markers for T-cells and macrophages, respectively. CD3 and CD68 staining were reduced after MB PDT treatment compared to vehicle treated controls (FIG. 2A). […] To confirm if there is an improvement in elastin degradation, clinical scoring as per an established protocol was performed by blinded investigators. […] To assess if this benefit on elastin degradation and immune cell infiltration was due to any systemic decrease in circulating cytokine levels known to be associated with aneurysm growth, cytokines such as IL-1B, IL-6 and IL-10, serum cytokine levels were measured.
Fresh tissue was fixed in 10% neutral buffered formalin (Azer Scientific, PFNBF-90) for 24 hours before being transferred to 70% EtOH. […] After paraffin embedding, sections were cut at 5 um for staining (AML Laboratories). Sections were then stained with H&E (VWR 95057-844, 95057-848), Van Gieson (Statlab Medical Products, KTVELLT), and Masson's Trichrome (CP Lab Chemicals, TRM-500). For IHC, standard immunohistochemistry procedures for 5 μm-thick aorta sections were used. In brief, after deparaffinization, endogenous peroxidase activity was quenched by placing the slides into 3% hydrogen peroxide (H2O2) for 10 min. Sections were immersed in preheated 10 mM citric acid (VWR., Radnor, PA., USA), pH 6.0, for 30 min and cooled in cold water. Sections were then blocked in 5% goat serum (Vector Laboratories, Burlingame, Calif., USA) for 20 min before being incubated overnight at 4° C. in a solution of rabbit anti-CD3 (0.4 μg/ml; ab5690; Abcam, Cambridge, MA., USA) antibody, rabbit anti-CD31 (ERP1729; 0.4 μg/ml; ab182981; Abcam) antibody, rabbit alpha smooth muscle Actin (SMA; 0.067 μg/ml; ab5694; Abcam), rabbit anti-CD68 (ERP23917; 2.0 μg/ml; ab283667; Abcam), and rabbit anti-Interleukin-1 receptor type 1 (IL1R1; 2.0 μg/ml; PAS-98766; Thermo Fisher, Eugene, OR., USA) in PBS. The next day, the sections were exposed to the biotinylated biotinylated goat-anti-rabbit IgG secondary antibody (15 μg/ml; Vector Laboratories) in PBS for 1 h followed by avidin-biotin complex for 1 h (1:200, ABC; Vector Laboratories). The reactions were visualized with 3,3′-diaminobenzidine (Millipore-Sigma) for 10 min and counterstained with Gill's Haematoxylin (Thermo Scientific) for 30 seconds. Finally, the sections were dehydrated, cleared in xylene and cover slipped. […]
For quantification of elastin using Van Gieson, an elastin scoring guide was used. […]

IL-1B, IL-6 and IL-10 = assay: Serum cytokine ELISAs after MB PDT; type: in vivo, mice; conditions: MB PDT vs controls
Excerpt: The formation and progression of AAA can be characterized by the degradation of the extracellular matrix (ECM) and the concurrent infiltration of immune cells into the aortic wall. To assess if MB PDT affects the extracellular matrix (ECM) of the aortic aneurysms, cross-sections of the aneurysms of the above mice which have undergone AAA induction and concurrently treated with MB PDT and the respective controls were stained with Verhoeff-Van Gieson (VVG) for elastin, Massons Trichrome for collagen and CD3 antibody for T-cells and CD68 antibody for macrophages for immune cell infiltration (FIG. 2A). […] Similarly, a compensatory effect of collagen expression into the elastin layer was observed (pointed by arrows) after PDT treatment compared to both vehicle-treated positive controls and sham controls. […] To assess if T-cells and macrophage infiltration is modulated in aneurysms upon treatment with MB PDT, the aneurysm cross-sections were stained for CD3 and CD68, markers for T-cells and macrophages, respectively. CD3 and CD68 staining were reduced after MB PDT treatment compared to vehicle treated controls (FIG. 2A). […] To assess if this benefit on elastin degradation and immune cell infiltration was due to any systemic decrease in circulating cytokine levels known to be associated with aneurysm growth, cytokines such as IL-1B, IL-6 and IL-10, serum cytokine levels were measured. […]

established AAAs = assay: MB PDT on pre-established and progressive aneurysms 21 days after induction surgery; type: in vivo, mice
Procedure: The photosensitizer dye methylene blue (M291-100) was used for photodynamic therapy treatment (MB-PDT). MB-PDT was applied at two time points during the experiment. To test the effect of MB-PDT on AAA formation, MB-PDT was done directly after the PPE saline wash (PODO). To investigate the effect of MB-PDT on AAA growth, Laparotomy and MB-PDT was performed 21 days postoperatively, covering the whole aneurysm (POD21). MB-PDT involves applying 10 ul of 10:1 MB Solution in DPBS (M291-100:21-030-CV) topically to the whole aneurysm, which was carefully dissected from surrounding tissue. Gauze was placed on either side of the aneurysm to absorb excess MB. The aneurysm was then irradiated for 25 min at an irradiance of 30 mW/cm^2 and fluence of 45 J/cm^2 (660 nm LED, Thor M660L4). Throughout the course of irradiation, 5 ul of MB was applied to the aneurysm every 2.5 min to prevent the tissue from drying out. After irradiation, the MB was washed with two changes of sterile saline. For the MB only group, the total amount of MB was applied topically to the aneurysm for five minutes and washed. For the light only group, the aneurysm was irradiated for 25 min, with 5 ul of sterile saline applied every 2.5 min to prevent tissue desiccation. For POD21 positive controls, a laparotomy was performed with no additional treatment.
Aneurysm size was tracked by weekly ultrasound surveillance.
In certain instances, AAA often goes undiagnosed or is diagnosed late, thus it is important to know if MB PDT can not only prevent AAA formation but also reduce or arrest progressive aneurysm growth. To evaluate the efficacy of MB PDT to inhibit the progression of AAA, MB PDT was administered to mice with pre-established and progressive aneurysms 21 days after the initial aneurysm induction surgery with elastase. […] Similar to the measurements done in the study of MB PDT upon AAA induction in FIG. 1, the maximum aortic diameters were measured using ultrasound, averaging anterior-posterior (AP) and transverse (TRV) dimensions for accuracy. […]

[6] = after MB PDT vs vehicle treated controls

SMILES: CN(C)c1ccc2nc3ccc(N(C)C)cc3[s+]c2c1 [MB, methylene blue]
- CML levels (Recombinant Tropoelastin): significant increase
- stiffness benefit in porcine aorta ([1]; MB PDT, exposure requirement higher, visually less striking): consistent
- degradation on incubation with recombinant elastase ([1]; porcine aorta after MB PDT, more resistance at higher light intensity (60 mW versus 120 mW)): resistant to degradation
- light exposure at which stiffness maximized [2]: 120 min
- vascular stiffness (forceps test) [2]: increased with duration of light exposure
- stiffness of the aneurysm (mouse aneurysms): clear improvement
- CML modification levels [3]: significant increase
- resistance to elastase-induced ECM degradation (VVG elastin staining) [4]: significant resistance
- elastin degradation, clinical scoring by blinded investigators ([5]; MB PDT treated group): trend towards improvement
- CD3 staining (T-cells) [5, 6]: reduced
- CD68 staining (macrophages) [5, 6]: reduced
- elastin degradation (VVG staining) [5, 6]: reduction of elastin degradation
- collagen degradation in the adventitia (Massons Trichrome) ([5]; after PDT vs vehicle treated controls and sham mice): less collagen degradation
- serum cytokine levels (IL-1B, IL-6, IL-10) (IL-1B, IL-6 and IL-10): No significant differences
- aneurysm diameter on week 9 (established AAAs; MB PDT on day 21, vs vehicle treated group): decrease
- enlargement of established AAAs (weekly ultrasound) (established AAAs; MB PDT on day 21 post-induction, vs vehicle-treated controls): significantly reduced
- morphological images and micrometric measurements of AAAs (established AAAs; treated vs vehicle): marked differences

Reference: US20260232817A1, “Activatable Drug Conjugates and Therapeutic Applications Thereof” (California Institute of Technology, priority 2023, published 2026)
